Data: patent US6914045B2, “Glycopeptide antibiotics” (Wyeth Holdings Corporation, priority 2001, dated 2005)
Values after ≈ are worked out from the molar mass of the structure shown. Values belong to the compound of their own block, whether it stands above or below them.

Columns and labels:
Test in all cases: in vitro antibacterial evaluation, MIC by broth dilution
Format in all cases: cell-based
[1] = tested on: Enterococcus sp.; details: broth dilution, 18 hours at 35° C.
Summary of the method: (§1)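 Inoculum 5×10^5 CFU/mL; concentrations 64 to 0.06 μg/mL; MIC defined as lowest inhibitory level. Conducted by broth dilution under NCCLS guidelines.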

[2] = tested on: Staphylococcus sp.; details: broth dilution, 18 hours at 35° C.; for MIC Staphylococcus aureus (GC 1131): strain GC 1131; for MIC Staphylococcus aureus (ATCC 29213): strain ATCC 29213; for MIC Staphylococcus aureus (GC 3051): strain GC 3051; for MIC Staphylococcus aureus (GC 3053): strain GC 3053; for MIC Staphylococcus aureus (GC 4541): strain GC 4541; for MIC Staphylococcus aureus (GC 4542): strain GC 4542; for MIC Staphylococcus aureus (GC 4544): strain GC 4544; for MIC Staphylococcus aureus (GC 4545): strain GC 4545
Summary of the method: as §1

[3] = tested on: Streptococcus sp.; details: broth dilution, 18 hours at 35° C.
Summary of the method: as §1

[4] = tested on: Escherichia coli; details: 18 hours at 35° C.

MIC Enterococcus avium (GC 4558) [1]: 4 mg/L (≈ 2.74 µM)
MIC Enterococcus faecalis (ATCC 29212) [1]: 16 mg/L (≈ 11 µM)
MIC Enterococcus faecalis (GC 2242) [1]: 8 mg/L (≈ 5.49 µM)
MIC Enterococcus faecalis (GC 2691) [1]: 8 mg/L (≈ 5.49 µM)
MIC Enterococcus faecalis (GC 3059) [1]: 8 mg/L (≈ 5.49 µM)
MIC Enterococcus faecalis (GC 4552) [1]: 16 mg/L (≈ 11 µM)
MIC Enterococcus faecalis (GC 4553) [1]: 8 mg/L (≈ 5.49 µM)
MIC Enterococcus faecalis (GC 4554) [1]: 16 mg/L (≈ 11 µM)
MIC Enterococcus faecalis (GC 6189) [1]: 8 mg/L (≈ 5.49 µM)
MIC Enterococcus faecium (GC 2243) [1]: 8 mg/L (≈ 5.49 µM)
MIC Enterococcus faecium (GC 4556) [1]: 8 mg/L (≈ 5.49 µM)
MIC Enterococcus faecium (GC 4557) [1]: 4 mg/L (≈ 2.74 µM)
MIC Enterococcus faecalis (ATCC 29212) ([1]; inoculum 5×10^5 CFU/mL, strain ATCC 29212): 16 mg/L (≈ 11 µM)
MIC Enterococcus faecalis (GC 2242) ([1]; inoculum 5×10^5 CFU/mL, strain GC 2242): 8 mg/L (≈ 5.49 µM)
MIC Enterococcus faecium (GC 2243) ([1]; inoculum 5×10^5 CFU/mL, strain GC 2243): 8 mg/L (≈ 5.49 µM)
MIC Enterococcus faecalis (GC 2691) ([1]; inoculum 5×10^5 CFU/mL, strain GC 2691): 8 mg/L (≈ 5.49 µM)
MIC Enterococcus faecalis (GC 3059) ([1]; inoculum 5×10^5 CFU/mL, strain GC 3059): 8 mg/L (≈ 5.49 µM)
MIC Enterococcus faecalis (GC 4552) ([1]; inoculum 5×10^5 CFU/mL, strain GC 4552): 16 mg/L (≈ 11 µM)
MIC Enterococcus faecalis (GC 4553) ([1]; inoculum 5×10^5 CFU/mL, strain GC 4553): 8 mg/L (≈ 5.49 µM)
MIC Enterococcus faecalis (GC 4554) ([1]; inoculum 5×10^5 CFU/mL, strain GC 4554): 16 mg/L (≈ 11 µM)
MIC Enterococcus faecium (GC 4556) ([1]; inoculum 5×10^5 CFU/mL, strain GC 4556): 8 mg/L (≈ 5.49 µM)
MIC Enterococcus faecium (GC 4557) ([1]; inoculum 5×10^5 CFU/mL, strain GC 4557): 4 mg/L (≈ 2.74 µM)
MIC Enterococcus avium (GC 4558) ([1]; inoculum 5×10^5 CFU/mL, strain GC 4558): 4 mg/L (≈ 2.74 µM)
MIC Enterococcus faecalis (GC 6189) ([1]; inoculum 5×10^5 CFU/mL, strain GC 6189): 8 mg/L (≈ 5.49 µM)
MIC Staphylococcus aureus (GC 1131) ([2]; inoculum 5×10^5 CFU/mL): 8 mg/L (≈ 5.49 µM)
MIC Staphylococcus aureus (ATCC 29213) [2]: 4 mg/L (≈ 2.74 µM)
MIC Staphylococcus aureus (GC 1131) [2]: 8 mg/L (≈ 5.49 µM)
MIC Staphylococcus aureus (GC 3051) [2]: 8 mg/L (≈ 5.49 µM)
MIC Staphylococcus aureus (GC 3053) [2]: 8 mg/L (≈ 5.49 µM)
MIC Staphylococcus aureus (GC 4541) [2]: 4 mg/L (≈ 2.74 µM)
MIC Staphylococcus aureus (GC 4542) [2]: 4 mg/L (≈ 2.74 µM)
MIC Staphylococcus aureus-SMITH (GC 4543) ([2]; strain GC 4543): 4 mg/L (≈ 2.74 µM)
MIC Staphylococcus aureus (GC 4544) [2]: 8 mg/L (≈ 5.49 µM)
MIC Staphylococcus aureus (GC 4545) [2]: 4 mg/L (≈ 2.74 µM)
MIC Coagulase Negative Staphylococcus (GC 4547) ([2]; strain GC 4547): 8 mg/L (≈ 5.49 µM)
MIC Coagulase Negative Staphylococcus (GC 4548) ([2]; strain GC 4548): 4 mg/L (≈ 2.74 µM)
MIC Coagulase Negative Staphylococcus (GC 4549) ([2]; strain GC 4549): 4 mg/L (≈ 2.74 µM)
MIC Coagulase Negative Staphylococcus (GC 4551) ([2]; strain GC 4551): 4 mg/L (≈ 2.74 µM)
MIC Coagulase Negative Staphylococcus (GC 6257) ([2]; strain GC 6257): 4 mg/L (≈ 2.74 µM)
MIC Streptococcus agalactiae (GC 4564) [3]: 2 mg/L (≈ 1.37 µM)
MIC Streptococcus pneumoniae (ATCC 6301) [3]: 1 mg/L (≈ 0.686 µM)
MIC Streptococcus pneumoniae (GC 1894) [3]: 0.25 mg/L (≈ 0.172 µM)
MIC Streptococcus pneumoniae (GC 4565) [3]: 2 mg/L (≈ 1.37 µM)
MIC Streptococcus pyogenes (GC 4563) [3]: 2 mg/L (≈ 1.37 µM)
MIC Streptococcus pneumoniae (ATCC 6301) ([3]; inoculum 5×10^5 CFU/mL, strain ATCC 6301): 1 mg/L (≈ 0.686 µM)
MIC Streptococcus pneumoniae (GC 1894) ([3]; inoculum 5×10^5 CFU/mL, strain GC 1894): 0.25 mg/L (≈ 0.172 µM)
MIC Streptococcus pyogenes (GC 4563) ([3]; inoculum 5×10^5 CFU/mL, strain GC 4563): 2 mg/L (≈ 1.37 µM)
MIC Streptococcus agalactiae (GC 4564) ([3]; inoculum 5×10^5 CFU/mL, strain GC 4564): 2 mg/L (≈ 1.37 µM)
MIC Streptococcus pneumoniae (GC 4565) ([3]; inoculum 5×10^5 CFU/mL, strain GC 4565): 2 mg/L (≈ 1.37 µM)
MIC Escherichia coli (ATCC 25922) [4]: >64 mg/L
MIC Escherichia coli (GC 4559) [4]: 64 mg/L (≈ 43.9 µM)
MIC Escherichia coli (GC 4560) [4]: 8 mg/L (≈ 5.49 µM)
SMILES: CC(c1ccccc1)C1NC(=O)CNC(=O)C(CO)NC(=O)C(CC2CNC(=N)N2C2OC(CO)C(O)C(O)C2O)NC(=O)C(CC2CNC(=N)N2)NC(=O)C(Cc2ccc(OC3OC(CO)C(OC4OC5COC(c6ccc(OCc7ccccc7)cc6)OC5C(O)C4O)C(O)C3O)cc2)NC1=O (centres unmarked) [Example 191]
MIC Staphylococcus haemolyticus (GC 4546) ([2]; strain GC 4546): 4 mg/L (≈ 2.74 µM)

MIC Enterococcus avium (GC 4558) ([1]; Enterococcus avium (GC 4558)): >64 mg/L
MIC Enterococcus faecalis (ATCC 29212) ([1]; Enterococcus faecalis (ATCC 29212)): >64 mg/L
MIC Enterococcus faecalis (GC 4552) ([1]; Enterococcus faecalis (GC 4552)): >64 mg/L
MIC Enterococcus faecalis (GC 4553) ([1]; Enterococcus faecalis (GC 4553)): >64 mg/L
MIC Enterococcus faecalis (GC 4554) ([1]; Enterococcus faecalis (GC 4554)): >64 mg/L
MIC Enterococcus faecalis (GC 6189) ([1]; Enterococcus faecalis (GC 6189)): >64 mg/L
MIC Enterococcus faecium (GC 2243) ([1]; Enterococcus faecium (GC 2243)): >64 mg/L
MIC Enterococcus faecium (GC 4556) ([1]; Enterococcus faecium (GC 4556)): >64 mg/L
MIC Enterococcus faecium (GC 4557) ([1]; Enterococcus faecium (GC 4557)): >64 mg/L
MIC Enterococcus avium (GC 4558) [1]: >64 mg/L
MIC Enterococcus faecalis (ATCC 29212) [1]: >64 mg/L
MIC Enterococcus faecalis (GC 2242) [1]: >64 mg/L
MIC Enterococcus faecalis (GC 2691) [1]: >64 mg/L
MIC Enterococcus faecalis (GC 3059) [1]: >64 mg/L
MIC Enterococcus faecalis (GC 4552) [1]: >64 mg/L
MIC Enterococcus faecalis (GC 4553) [1]: >64 mg/L
MIC Enterococcus faecalis (GC 4554) [1]: >64 mg/L
MIC Enterococcus faecalis (GC 6189) [1]: >64 mg/L
MIC Enterococcus faecium (GC 2243) [1]: >64 mg/L
MIC Enterococcus faecium (GC 4556) [1]: >64 mg/L
MIC Enterococcus faecium (GC 4557) [1]: >64 mg/L
MIC Enterococcus faecalis (GC 2242) ([1]; strain GC 2242): >64 mg/L
MIC Enterococcus faecalis (GC 2691) ([1]; strain GC 2691): >64 mg/L
MIC Enterococcus faecalis (GC 3059) ([1]; strain GC 3059): >64 mg/L
MIC Coagulase Negative Staphylococcus (GC 4547) [2]: >64 mg/L
MIC Coagulase Negative Staphylococcus (GC 4548) [2]: >64 mg/L
MIC Coagulase Negative Staphylococcus (GC 4549) [2]: >64 mg/L
MIC Coagulase Negative Staphylococcus (GC 4551) [2]: >64 mg/L
MIC Staphylococcus aureus-SMITH (GC 4543) [2]: >64 mg/L
MIC Staphylococcus aureus (ATCC 29213) [2]: >64 mg/L
MIC Staphylococcus aureus (GC 1131) [2]: >64 mg/L
MIC Staphylococcus aureus (GC 3051) [2]: >64 mg/L
MIC Staphylococcus aureus (GC 3053) [2]: >64 mg/L
MIC Staphylococcus aureus (GC 4541) [2]: >64 mg/L
MIC Staphylococcus aureus (GC 4542) [2]: >64 mg/L
MIC Staphylococcus aureus-SMITH (GC 4543) ([2]; strain GC 4543): >64 mg/L
MIC Staphylococcus aureus (GC 4544) [2]: >64 mg/L
MIC Staphylococcus aureus (GC 4545) [2]: >64 mg/L
MIC Coagulase Negative Staphylococcus (GC 4547) ([2]; strain GC 4547): >64 mg/L
MIC Coagulase Negative Staphylococcus (GC 4548) ([2]; strain GC 4548): >64 mg/L
MIC Coagulase Negative Staphylococcus (GC 4549) ([2]; strain GC 4549): >64 mg/L
MIC Coagulase Negative Staphylococcus (GC 4551) ([2]; strain GC 4551): >64 mg/L
MIC Streptococcus agalactiae (GC 4564) [3]: >64 mg/L
MIC Streptococcus pneumoniae (ATCC 6301) [3]: >64 mg/L
MIC Streptococcus pneumoniae (GC 1894) [3]: >64 mg/L
MIC Streptococcus pneumoniae (GC 4565) [3]: >64 mg/L
MIC Streptococcus pyogenes (GC 4563) [3]: >64 mg/L
MIC Streptococcus pneumoniae (ATCC 6301) ([3]; strain ATCC 6301): >64 mg/L
MIC Streptococcus pneumoniae (GC 1894) ([3]; strain GC 1894): >64 mg/L
MIC Streptococcus pyogenes (GC 4563) ([3]; strain GC 4563): >64 mg/L
MIC Streptococcus agalactiae (GC 4564) ([3]; strain GC 4564): >64 mg/L
MIC Streptococcus pneumoniae (GC 4565) ([3]; strain GC 4565): >64 mg/L
MIC Escherichia coli (ATCC 25922) [4]: >64 mg/L
MIC Escherichia coli (GC 4559) [4]: >64 mg/L
MIC Escherichia coli (GC 4560) [4]: 64 mg/L (≈ 41 µM)
SMILES: CC(c1ccccc1)C1NC(=O)CNC(=O)C(CO)NC(=O)C(C(O)C2CN(c3nc4ccccc4s3)C(=N)N2C2OC(CO)C(O)C(O)C2O)NC(=O)C(C(O)C2CNC(=Nc3nc4ccccc4s3)N2)NC(=O)C(Cc2ccc(OC3OC(CO)C(OC4OC(CO)C(O)C(O)C4O)C(O)C3O)cc2)NC1=O (stereo not drawn) [Example 94, Cyclo[glycyl-β-methylphenylalanyl-O-(4-O-hexopyranosylhexopyranosyl)tyrosyl-3-[2-(1,3-benzothiazol-2-ylimino)imidazolidin-4-yl]seryl-3-[1-(1,3-benzo-thiazol-2-yl)-2-imino-3-hexopyranosylimidazolidin-4-yl]serylseryl]]
MIC Staphylococcus haemolyticus (GC 4546) [2]: >64 mg/L
MIC Staphylococcus haemolyticus (GC 4546) ([2]; strain GC 4546): >64 mg/L
